Results on 18 compounds are retold here after patent publication US20240101576A1, “HETEROCYCLIC INHIBITORS OF EGFR AND/OR HER2, FOR USE IN THE TREATMENT OF CANCER” (Scorpion Therapeutics, Inc., priority 2020, published 2024).

Holding throughout (type): cell-based
For one assay, the target named is T1, EGFR WT (Ba/F3 cells) (Homo sapiens, UniProt P00533).
T1 construct: expressed in transfected cells; host or cells: Ba/F3 (murine pro-B cells), retroviral transduction, puromycin selection, maintained with EGF
Briefly: Inhibitor activity on EGFR-dependent cell growth (CellTiter-Glo, 72 h), Ba/F3 EGFR WT. As to conditions: read-out: BaF3 WT IC50. The gist of the method: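 This growth assay used Ba/F3 cells that depend on wild-type EGFR and are kept in EGF without IL3. Compounds were made up as 10 mM DMSO stocks and diluted 3-fold over 10 points. 120 nL went onto 600 cells/well. After 72 hours, 40 μL CellTiter-Glo was added and luminescence read on EnVision after 30 min.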

For assay [1], the target named is T2, EGFR exon 20 ASV Ins V769_D770 (Ba/F3 cells) (Homo sapiens, UniProt P00533, INS769ASV).
T2 construct: expressed in transfected cells; host or cells: Ba/F3 (murine pro-B cells), retroviral transduction, puromycin selection, IL3-independent pool
As to the kind of experiment: Inhibitor activity on EGFR-dependent cell growth (CellTiter-Glo, 72 h), Ba/F3 EGFR exon 20 ASV Ins. As to conditions: read-out: BaF3 ASV IC50. In a few lines:
(§1)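 IC50s derive from a sigmoidal dose–response fit of CellTiter-Glo signal. The signal was normalised between […]-treated cells and cell-free medium. Ba/F3 mutant-EGFR cells, seeded at 400–800/well depending on the line, had 72 h of exposure to a 10-point, 3-fold compound series.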
(Cellular ATP, detected with luciferase, serves as a proxy for viable cell number.)

In assay [2] the target is T3, EGFR exon 20 SVD Ins D770_N771 (Ba/F3 cells) (Homo sapiens, UniProt P00533, INS770SVD).
T3 construct: expressed in transfected cells; host or cells: Ba/F3 (murine pro-B cells), retroviral transduction, puromycin selection, IL3-independent pool
Briefly: Inhibitor activity on EGFR-dependent cell growth (CellTiter-Glo, 72 h), Ba/F3 EGFR exon 20 SVD Ins. To be noted: read-out: BaF3 SVD IC50. The gist of the method: as §1

For assay [3], the target named is T4, EGFR exon 20 FQEA Ins A763_V764 (Ba/F3 cells) (Homo sapiens, UniProt P00533, INS763FQEA).
T4 construct: expressed in transfected cells; host or cells: Ba/F3 (murine pro-B cells), retroviral transduction, puromycin selection, IL3-independent pool
Briefly: Inhibitor activity on EGFR-dependent cell growth (CellTiter-Glo, 72 h), Ba/F3 EGFR exon 20 FQEA Ins. To be noted: read-out: BaF3 FQEA IC50. In a few lines:
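Mutant EGFR drives IL3-independent growth of engineered Ba/F3 pools. L858R cells go in at 400/well, L858R/C797S at 600, and exon 19del or FQEA insertion at 800. After 72 h with compound, plates are equilibrated 15 min at RT. Reagent is added 1:1, followed by 30 min and a luminescence read.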

Assay [4] has as its target T2, EGFR exon 20 ASV Ins V769_D770 (Ba/F3 cells). As to the kind of experiment: Inhibitor activity on EGFR phosphorylation (pEGFR AlphaLISA, 2 h), Ba/F3 EGFR exon 20 ASV Ins. As to conditions: EGFR phosphorylation, AlphaLISA, 2 hours; read-out: ASV IC50 (pEGFR). An excerpt: Example B. Inhibitor Activity on EGFR phosphorylation (pEGFR)
EGFR mutant Ba/F3 cells were generated by transduction with retrovirus containing vectors expressing EGFR L858R, EGFR exon 19del, EGFR L858R/C797S, EGFR exon 20 NPG Ins D770_N771, EGFR exon 20 ASV Ins V769_D770, or EGFR exon 20 SVD Ins D770_N771 genes along with a puromycin selection marker. Transduced cells are selected with puromycin for 7 days and are then be transferred into culture media without Interleukin 3 (IL3). Surviving cells are confirmed to express EGFR by Western blot and maintained as a pool. CUTO14 cells were obtained from Dr. Robert C. Doebele at the University of Colorado. The IC50 date are included in Table 6 and Table 7.
1.1 Cells are harvested from flask into cell culture medium and the cell number counted.
1.2 Cells are diluted with culture medium to the desired density and 40 μL of cell suspension is added into each well of 384-well cell culture plate and the seeding density is 50K cells/well (Ba/F3) or 12.5K cells/well (CUTO14).
2 Compound Preparation and Treatment
2.1 Test compounds are dissolved to 10 mM in a DMSO stock solution. 45 μL of stock solution is transferred to a 384 polypropylene plate (pp-plate). Perform 3-fold, 10-point dilution via transferring 15 μL compound into 30 μL DMSO using a TECAN (EVO200) liquid handler.
2.2 Spin plates at room temperature at 1,000 RPM for 1 minute.
2.3 Transfer 5 nL of diluted compound from compound source plate into the cell plate.
2.4 After compound treatment for 2 hours, perform pEGFR detection by AlphaLISA for compound treatment plates as described in “Detection” section.
3 Detection by pEGFR AlphaLISA (Perkin-Elmer)
3.1 Plates are removed from incubators and equilibrated at room temperature for 10 minutes, and media was removed
3.2 10 μL of lysis buffer is added and plates shaken at 600 rpm for 1 hr.
3.3 Prepare acceptor mix just before use and dispense 5 μL of acceptor mix to all the wells. Shake 350 rpm for Ihr in the dark
3.4 Prepare donor mix under low light conditions prior to use. Dispense 5 μL of donor mix to all the wells. Mix well on the shaker, seal and wrap in aluminum foil and incubate 1.5 hrs at room temperature in the dark
3.5 Transfer 18.5 μL mixture to OptiPlate 384, and read using an Envision. The IC50 date were included in Table 6 and Table 7.
On the technique in general: In Alpha technology, singlet oxygen from a donor bead excites a nearby acceptor bead.

The target of assay [5] is T5, EGFR exon 20 NPG Ins D770_N771 (Ba/F3 cells) (Homo sapiens, UniProt P00533, INS770NPG).
T5 construct: expressed in transfected cells; host or cells: Ba/F3 (murine pro-B cells), retroviral transduction, puromycin selection, IL3-independent pool
Briefly: Inhibitor activity on EGFR-dependent cell growth (CellTiter-Glo, 72 h), Ba/F3 EGFR exon 20 NPG Ins. To be noted: read-out: BaF3 NPG IC50. The gist of the method:
as §1

As usually defined, the IC50 is the concentration that gives 50% inhibition.

T1 sequence (P00533 25-1210): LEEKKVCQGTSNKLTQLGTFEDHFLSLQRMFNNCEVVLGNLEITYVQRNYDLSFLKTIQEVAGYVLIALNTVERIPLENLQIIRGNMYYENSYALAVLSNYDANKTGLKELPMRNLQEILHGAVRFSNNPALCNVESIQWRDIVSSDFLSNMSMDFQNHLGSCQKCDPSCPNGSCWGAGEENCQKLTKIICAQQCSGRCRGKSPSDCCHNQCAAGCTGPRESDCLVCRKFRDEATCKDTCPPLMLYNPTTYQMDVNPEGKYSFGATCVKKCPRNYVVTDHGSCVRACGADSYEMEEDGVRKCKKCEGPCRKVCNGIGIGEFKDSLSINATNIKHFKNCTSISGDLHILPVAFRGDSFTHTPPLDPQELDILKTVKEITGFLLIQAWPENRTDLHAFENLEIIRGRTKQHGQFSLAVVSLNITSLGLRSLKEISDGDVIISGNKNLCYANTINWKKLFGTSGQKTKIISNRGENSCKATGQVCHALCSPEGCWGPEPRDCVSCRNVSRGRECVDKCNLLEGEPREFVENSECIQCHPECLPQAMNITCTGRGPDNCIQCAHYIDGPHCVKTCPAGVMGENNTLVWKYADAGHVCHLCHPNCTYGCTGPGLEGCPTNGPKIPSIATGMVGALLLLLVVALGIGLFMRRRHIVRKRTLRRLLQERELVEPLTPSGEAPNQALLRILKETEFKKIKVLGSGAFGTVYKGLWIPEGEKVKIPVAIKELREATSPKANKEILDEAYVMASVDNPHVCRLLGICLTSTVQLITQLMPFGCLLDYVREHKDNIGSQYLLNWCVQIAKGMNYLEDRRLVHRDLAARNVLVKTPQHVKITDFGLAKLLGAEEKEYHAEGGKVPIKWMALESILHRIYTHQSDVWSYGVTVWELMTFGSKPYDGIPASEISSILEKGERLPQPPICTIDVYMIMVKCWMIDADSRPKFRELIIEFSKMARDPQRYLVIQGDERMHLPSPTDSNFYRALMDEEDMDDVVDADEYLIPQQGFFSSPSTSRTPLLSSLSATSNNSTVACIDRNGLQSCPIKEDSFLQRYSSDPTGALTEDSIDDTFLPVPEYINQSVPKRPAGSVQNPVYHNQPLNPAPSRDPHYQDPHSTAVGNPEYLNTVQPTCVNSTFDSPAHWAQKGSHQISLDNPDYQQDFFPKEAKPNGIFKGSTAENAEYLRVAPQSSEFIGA
T4 sequence (P00533 with tags, fused parts or gaps INS763FQEA): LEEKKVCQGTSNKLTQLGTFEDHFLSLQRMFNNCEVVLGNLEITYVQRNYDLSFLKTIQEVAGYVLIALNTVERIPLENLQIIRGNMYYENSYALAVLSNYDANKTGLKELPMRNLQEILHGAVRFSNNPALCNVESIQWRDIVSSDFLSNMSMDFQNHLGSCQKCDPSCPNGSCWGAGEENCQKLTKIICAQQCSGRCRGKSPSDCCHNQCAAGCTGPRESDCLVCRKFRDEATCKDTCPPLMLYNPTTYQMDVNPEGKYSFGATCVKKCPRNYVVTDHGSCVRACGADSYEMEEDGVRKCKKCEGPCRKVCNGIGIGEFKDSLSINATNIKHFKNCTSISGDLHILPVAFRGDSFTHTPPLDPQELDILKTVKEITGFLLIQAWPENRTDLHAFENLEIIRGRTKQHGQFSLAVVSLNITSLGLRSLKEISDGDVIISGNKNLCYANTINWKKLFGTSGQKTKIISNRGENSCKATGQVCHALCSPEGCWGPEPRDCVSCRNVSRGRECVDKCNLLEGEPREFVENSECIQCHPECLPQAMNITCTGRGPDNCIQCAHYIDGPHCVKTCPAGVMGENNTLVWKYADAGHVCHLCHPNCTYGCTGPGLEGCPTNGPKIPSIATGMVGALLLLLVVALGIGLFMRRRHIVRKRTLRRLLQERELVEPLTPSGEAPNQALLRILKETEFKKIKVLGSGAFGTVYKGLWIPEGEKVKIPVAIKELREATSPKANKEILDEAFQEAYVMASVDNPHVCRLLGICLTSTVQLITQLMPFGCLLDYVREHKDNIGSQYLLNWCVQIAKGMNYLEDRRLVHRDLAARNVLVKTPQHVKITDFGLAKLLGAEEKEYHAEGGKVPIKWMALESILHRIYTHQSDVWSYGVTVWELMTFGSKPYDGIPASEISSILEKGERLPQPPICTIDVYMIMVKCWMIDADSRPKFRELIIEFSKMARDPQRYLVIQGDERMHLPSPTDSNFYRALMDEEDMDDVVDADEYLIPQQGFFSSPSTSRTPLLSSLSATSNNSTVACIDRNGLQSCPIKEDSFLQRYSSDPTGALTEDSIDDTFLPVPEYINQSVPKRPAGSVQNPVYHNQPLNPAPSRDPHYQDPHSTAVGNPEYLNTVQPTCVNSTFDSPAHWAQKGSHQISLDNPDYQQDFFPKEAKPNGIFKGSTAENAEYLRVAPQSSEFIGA
T2 sequence (P00533 with tags, fused parts or gaps INS769ASV): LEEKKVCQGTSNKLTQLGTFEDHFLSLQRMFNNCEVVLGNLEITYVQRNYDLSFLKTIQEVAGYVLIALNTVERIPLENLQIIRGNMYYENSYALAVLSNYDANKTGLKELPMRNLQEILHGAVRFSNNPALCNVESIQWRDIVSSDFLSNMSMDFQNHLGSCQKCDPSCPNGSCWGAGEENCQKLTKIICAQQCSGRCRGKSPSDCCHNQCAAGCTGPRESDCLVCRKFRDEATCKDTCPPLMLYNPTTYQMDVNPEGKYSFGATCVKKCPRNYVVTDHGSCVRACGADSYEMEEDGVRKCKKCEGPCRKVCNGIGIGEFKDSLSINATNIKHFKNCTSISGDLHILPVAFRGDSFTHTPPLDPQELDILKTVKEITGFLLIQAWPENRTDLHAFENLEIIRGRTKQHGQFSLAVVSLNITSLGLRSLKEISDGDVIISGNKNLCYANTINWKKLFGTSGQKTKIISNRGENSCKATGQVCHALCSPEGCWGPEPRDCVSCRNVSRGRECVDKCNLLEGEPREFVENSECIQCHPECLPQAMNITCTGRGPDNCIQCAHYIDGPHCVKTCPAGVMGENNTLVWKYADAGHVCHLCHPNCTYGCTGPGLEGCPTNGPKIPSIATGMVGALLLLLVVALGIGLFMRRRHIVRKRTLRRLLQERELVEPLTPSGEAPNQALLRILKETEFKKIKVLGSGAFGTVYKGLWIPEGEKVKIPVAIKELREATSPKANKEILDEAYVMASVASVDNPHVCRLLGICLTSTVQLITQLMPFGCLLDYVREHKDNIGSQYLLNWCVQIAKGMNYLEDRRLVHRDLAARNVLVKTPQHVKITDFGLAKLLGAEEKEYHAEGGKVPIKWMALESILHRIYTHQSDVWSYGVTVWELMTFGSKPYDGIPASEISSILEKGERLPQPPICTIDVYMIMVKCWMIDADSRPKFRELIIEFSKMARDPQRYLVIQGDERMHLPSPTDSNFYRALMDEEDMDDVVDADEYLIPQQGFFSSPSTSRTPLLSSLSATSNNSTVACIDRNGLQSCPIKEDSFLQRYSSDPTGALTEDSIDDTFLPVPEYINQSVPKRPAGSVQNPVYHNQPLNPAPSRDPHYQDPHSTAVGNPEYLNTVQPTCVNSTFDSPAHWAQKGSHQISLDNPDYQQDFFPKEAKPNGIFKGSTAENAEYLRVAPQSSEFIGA
T3 sequence (P00533 with tags, fused parts or gaps INS770SVD): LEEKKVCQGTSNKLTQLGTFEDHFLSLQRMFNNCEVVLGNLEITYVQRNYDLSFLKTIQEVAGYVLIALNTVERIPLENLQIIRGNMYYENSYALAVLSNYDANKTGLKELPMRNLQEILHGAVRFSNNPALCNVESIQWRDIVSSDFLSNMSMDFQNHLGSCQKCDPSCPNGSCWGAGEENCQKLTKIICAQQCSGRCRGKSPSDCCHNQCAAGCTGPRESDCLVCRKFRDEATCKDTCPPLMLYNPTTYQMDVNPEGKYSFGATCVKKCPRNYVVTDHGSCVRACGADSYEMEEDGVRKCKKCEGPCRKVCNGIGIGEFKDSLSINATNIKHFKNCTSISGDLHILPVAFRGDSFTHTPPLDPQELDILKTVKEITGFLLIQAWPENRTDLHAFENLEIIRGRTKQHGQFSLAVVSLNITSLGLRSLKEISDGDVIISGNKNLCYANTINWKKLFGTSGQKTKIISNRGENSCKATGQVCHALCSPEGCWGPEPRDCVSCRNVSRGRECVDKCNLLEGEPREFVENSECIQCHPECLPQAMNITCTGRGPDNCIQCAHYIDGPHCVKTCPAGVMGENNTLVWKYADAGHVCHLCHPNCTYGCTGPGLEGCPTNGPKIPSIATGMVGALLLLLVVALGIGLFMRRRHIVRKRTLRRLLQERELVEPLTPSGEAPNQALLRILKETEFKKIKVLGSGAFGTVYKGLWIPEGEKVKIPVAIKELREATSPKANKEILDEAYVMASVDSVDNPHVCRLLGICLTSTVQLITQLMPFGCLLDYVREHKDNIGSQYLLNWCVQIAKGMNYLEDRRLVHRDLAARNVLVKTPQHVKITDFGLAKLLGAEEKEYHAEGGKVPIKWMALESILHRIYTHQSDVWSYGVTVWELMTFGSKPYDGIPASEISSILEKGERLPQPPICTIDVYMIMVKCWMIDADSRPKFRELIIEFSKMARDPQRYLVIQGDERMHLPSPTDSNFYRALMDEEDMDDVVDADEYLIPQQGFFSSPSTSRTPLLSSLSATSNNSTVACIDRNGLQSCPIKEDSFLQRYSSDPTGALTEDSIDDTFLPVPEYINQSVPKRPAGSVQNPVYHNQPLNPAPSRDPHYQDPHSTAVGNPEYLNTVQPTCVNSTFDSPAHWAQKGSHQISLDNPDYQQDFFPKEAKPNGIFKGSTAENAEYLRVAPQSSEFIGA

Regarding `COc1c(Cl)cccc1Nc1c(-c2ccnc(N)n2)[nH]c2c1C(=O)NC[C@@H]2C` [186a], the IC50 is 0.1 to 1 µM on EGFR WT (Ba/F3 cells); under 0.1 µM in assay [1]; under 0.1 µM in assay [2]; under 0.1 µM in assay [3]; under 0.1 µM in assay [4].
Turning to `COc1c(Cl)cccc1Nc1c(-c2ccnc(N)n2)[nH]c2c1C(=O)NC[C@H]2C` [186b], the 50% inhibitory concentration (IC50) was 0.1 to 1 µM on EGFR WT (Ba/F3 cells); under 0.1 µM in assay [1]; under 0.1 µM in assay [2]; 0.1 to 1 µM in assay [3]; under 0.1 µM in assay [4].
In the case of `COc1c(Cl)cccc1Nc1c(-c2ccnc(N)n2)[nH]c2c1C(=O)N[C@@H](C)C2` [187a], the IC50 on EGFR WT (Ba/F3 cells) is over 1 µM; in assay [1], 0.1 to 1 µM; in assay [2] it was 0.1 to 1 µM; in assay [3], 0.1 to 1 µM; in assay [4], under 0.1 µM.
For `COc1c(Cl)cccc1Nc1c(-c2ccnc(N)n2)[nH]c2c1C(=O)N[C@H](C)C2` [187b], the IC50 on EGFR WT (Ba/F3 cells) was 0.1 to 1 µM; in assay [1] it was under 0.1 µM; in assay [2], under 0.1 µM; in assay [3], 0.1 to 1 µM; in assay [4] it was under 0.1 µM.
Take `COc1c(Cl)cccc1Nc1c(-c2ccnc(N)c2F)[nH]c2c1C(=O)NCC2` [Compound 686, 2-(2-amino-3-fluoropyridin-4-yl)-3-[(3-chloro-2-methoxyphenyl)amino]-1H,5H,6H,7H-pyrrolo[3,2-c]pyridin-4-one; trifluoroacetic acid]: the 50% inhibitory concentration (IC50) at EGFR WT (Ba/F3 cells) was 0.1 to 1 µM; in assay [1], under 0.1 µM; in assay [2], under 0.1 µM; in assay [3], 0.1 to 1 µM; in assay [4], under 0.1 µM.
On to `Cc1c(F)cccc1Nc1c(-c2nc(N)ncc2F)[nH]c2c1C(=O)NCC2` [Compound 689, 2-(2-amino-5-fluoropyrimidin-4-yl)-3-[(3-fluoro-2-methylphenyl)amino]-1H,5H,6H,7H-pyrrolo[3,2-c]pyridin-4-one], for which the IC50 is over 1 µM in assay [1], over 1 µM in assay [2], 0.1 to 1 µM in assay [3] and 0.1 to 1 µM in assay [4].
Take `COc1c(Cl)cccc1Nc1c(-c2nc(N)ncc2C#N)[nH]c2c1C(=O)NCC2` [Compound 693, 2-amino-4-[3-[(3-chloro-2-methoxyphenyl)amino]-4-oxo-1H,5H,6H,7H-pyrrolo[3,2-c]pyridin-2-yl]pyrimidine-5-carbonitrile]: the IC50 (at EGFR WT (Ba/F3 cells); in assay [1]; in assay [2]; in assay [3]; in assay [4]) was over 1 µM each time.
For the compound `COc1c(F)cccc1Nc1c(-c2ccnc3ccc(NC4(C)CC4)nc23)[nH]c2c1C(=O)NCC2` [Compound 695, 3-[(3-fluoro-2-methoxyphenyl)amino]-2-[6-[(1-methylcyclopropyl)amino]-1,5-naphthyridin-4-yl]-1H,5H,6H,7H-pyrrolo[3,2-c]pyridin-4-one; formic acid], the IC50 (at EGFR WT (Ba/F3 cells); in assay [1]; in assay [2]; in assay [3]; in assay [4]) was under 0.1 µM each time.
As for `CCOc1c(F)cccc1Nc1c(-c2ccnc(N)n2)[nH]c2c1C(=O)NCC2` [Compound 699, 2-(2-aminopyrimidin-4-yl)-3-[(2-ethoxy-3-fluorophenyl)amino]-1H,5H,6H,7H-pyrrolo[3,2-c]pyridin-4-one; trifluoroacetic acid], the IC50 was over 1 µM on EGFR WT (Ba/F3 cells); over 1 µM in assay [1]; over 1 µM in assay [2]; over 1 µM in assay [3]; 0.1 to 1 µM in assay [4].
For `CCOc1c(Cl)cccc1Nc1c(-c2ccnc(N)n2)[nH]c2c1C(=O)NCC2` [Compound 700, 2-(2-aminopyrimidin-4-yl)-3-[(3-chloro-2-ethoxyphenyl)amino]-1H,5H,6H,7H-pyrrolo[3,2-c]pyridin-4-one; trifluoroacetic acid], the IC50 was over 1 µM at EGFR WT (Ba/F3 cells), over 1 µM in assay [3] and 0.1 to 1 µM in assay [4].
Consider `C#Cc1cccc(Nc2c(-c3ccnc(N)n3)[nH]c3c2C(=O)NCC3)c1OC` [Compound 703, 2-(2-aminopyrimidin-4-yl)-3-[(3-ethynyl-2-methoxyphenyl)amino]-1H,5H,6H,7H-pyrrolo[3,2-c]pyridin-4-one], for which the IC50 on EGFR WT (Ba/F3 cells) is over 1 µM; in assay [1], over 1 µM; in assay [2] it was over 1 µM; in assay [3] it was over 1 µM; in assay [4], 0.1 to 1 µM.
Regarding `CC#Cc1cccc(Nc2c(-c3ccnc(N)n3)[nH]c3c2C(=O)NCC3)c1OC` [Compound 704, 2-(2-aminopyrimidin-4-yl)-3-[[2-methoxy-3-(prop-1-yn-1-yl)phenyl]amino]-1H,5H,6H,7H-pyrrolo[3,2-c]pyridin-4-one], the half-inhibitory concentration (IC50) (on EGFR WT (Ba/F3 cells); in assay [1]; in assay [2]; in assay [3]; in assay [4]) was over 1 µM in each case.
Take `COc1cccc(Nc2c(-c3ccnc(N)n3)[nH]c3c2C(=O)NCC3)c1C` [Compound 705, 2-(2-aminopyrimidin-4-yl)-3-[(3-methoxy-2-methylphenyl)amino]-1H,5H,6H,7H-pyrrolo[3,2-c]pyridin-4-one]: the IC50 (on EGFR WT (Ba/F3 cells); in assay [1]; in assay [2]; in assay [3]; in assay [4]) was over 1 µM throughout.
Turning to `Nc1nccc(-c2[nH]c3c(c2Nc2ccc(Cl)cc2)C(=O)NCC3)n1` [compound 192], the IC50 (on EGFR WT (Ba/F3 cells); in assay [3]; in assay [4]) was over 1 µM each time.
For the compound `Nc1nccc(-c2[nH]c3c(c2Nc2cccc(Cl)c2)C(=O)NCC3)n1` [compound 193], the IC50 at EGFR WT (Ba/F3 cells) was 0.1 to 1 µM; in assay [3], 0.1 to 1 µM; in assay [4], under 0.1 µM.
Consider `Nc1nccc(-c2[nH]c3c(c2Nc2ccccc2Cl)C(=O)NCC3)n1` [compound 194], for which the IC50 at EGFR WT (Ba/F3 cells) is 0.1 to 1 µM; in assay [3], 0.1 to 1 µM; in assay [4] it was under 0.1 µM.
Turning to `COc1c(C)cccc1Nc1c(-c2ccnc(N)n2)[nH]c2c1C(=O)NCC2` [compound 305], the IC50 at EGFR WT (Ba/F3 cells) was over 1 µM; in assay [3], 0.1 to 1 µM; in assay [4], under 0.1 µM.
Regarding `COc1c(Cl)cccc1Nc1c(-c2ccnc3ccc(OCC(F)(F)F)nc23)[nH]c2c1C(=O)NCC2` [compound 763, 3-[(3-chloro-2-methoxyphenyl)amino]-2-[6-(2,2,2-trifluoroethoxy)-1,5-naphthyridin-4-yl]-1H,5H,6H,7H-pyrrolo[3,2-c]pyridin-4-one], the IC50 is 0.1 to 1 µM at EGFR WT (Ba/F3 cells); 0.1 to 1 µM in assay [5]; under 0.1 µM in assay [1]; under 0.1 µM in assay [2]; 0.1 to 1 µM in assay [3].
